Measurements: paper PMC6934184, “Selective DNA-PKcs inhibition extends the therapeutic index of localized radiotherapy and chemotherapy” (The Journal of Clinical Investigation, 2019)

Biological target: T1, ABL2 (Arg) (Homo sapiens, UniProt P42684)
T1 construct: purchased Thermo Fisher Scientific (Life Technologies) SelectScreen
Assay: SelectScreen Z'LYTE
Format: biochemical
Summary of the method: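 Percent values come from Thermo SelectScreen profiling of NU5455, combining activity and binding assays. CSF1R was run in Z'LYTE format at Km app ATP, and CAMK1 in Adapta format with ATP listed at 10.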

T1 sequence (P42684 whole entry): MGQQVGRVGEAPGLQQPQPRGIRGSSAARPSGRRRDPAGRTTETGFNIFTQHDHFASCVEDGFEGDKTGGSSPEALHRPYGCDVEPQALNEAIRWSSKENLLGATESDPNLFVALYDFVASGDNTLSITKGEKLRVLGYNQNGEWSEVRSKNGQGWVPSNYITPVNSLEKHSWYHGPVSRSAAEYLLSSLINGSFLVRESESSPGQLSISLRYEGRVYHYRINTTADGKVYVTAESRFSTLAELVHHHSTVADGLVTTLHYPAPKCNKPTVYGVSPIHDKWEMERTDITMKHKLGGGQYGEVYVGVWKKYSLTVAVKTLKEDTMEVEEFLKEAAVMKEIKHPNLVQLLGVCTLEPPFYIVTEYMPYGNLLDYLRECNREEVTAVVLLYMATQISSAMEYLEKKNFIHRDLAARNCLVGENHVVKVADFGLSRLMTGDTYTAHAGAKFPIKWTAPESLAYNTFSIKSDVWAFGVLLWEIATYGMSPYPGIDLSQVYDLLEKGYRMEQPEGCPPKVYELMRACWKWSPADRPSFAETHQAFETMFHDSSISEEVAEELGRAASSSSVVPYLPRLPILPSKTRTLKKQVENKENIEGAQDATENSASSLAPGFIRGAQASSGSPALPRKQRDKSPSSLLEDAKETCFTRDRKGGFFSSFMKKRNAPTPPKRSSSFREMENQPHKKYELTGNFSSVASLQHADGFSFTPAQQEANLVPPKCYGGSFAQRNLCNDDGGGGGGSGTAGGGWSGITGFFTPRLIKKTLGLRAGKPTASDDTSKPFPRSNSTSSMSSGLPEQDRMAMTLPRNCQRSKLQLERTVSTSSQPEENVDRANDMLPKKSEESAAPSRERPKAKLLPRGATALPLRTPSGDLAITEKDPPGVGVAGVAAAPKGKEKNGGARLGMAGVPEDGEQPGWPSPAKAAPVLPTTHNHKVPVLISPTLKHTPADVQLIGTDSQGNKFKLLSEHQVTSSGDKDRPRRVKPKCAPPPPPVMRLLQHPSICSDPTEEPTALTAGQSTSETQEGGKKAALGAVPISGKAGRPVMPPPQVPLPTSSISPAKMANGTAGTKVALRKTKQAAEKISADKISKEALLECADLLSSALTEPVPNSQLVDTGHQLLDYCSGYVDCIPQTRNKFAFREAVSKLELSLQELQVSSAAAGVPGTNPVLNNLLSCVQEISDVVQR

Question: How did the inhibition at 1 µM turn out when CN(C(=O)CN1CCOCC1)c1ccc2sc3c(-c4cccc5c(=O)cc(N6CC7CCC(C6)O7)oc45)cccc3c2c1 [NU5455] was run?
Answer: -10.3%
